From patent publication US12383534B2, “Methods for treating cancer” (REGENTS OF THE UNIVERSITY OF MINNESOTA, priority 2021, dated 2025)

Experiments:
[1] = system: CIC-DUX4 target genes ETV1, 4, and 5; assay: RT-qPCR for CIC-DUX4 target genes in NCC-CDS-X1 cells; assay type: cell-based, human; conditions: NCC-CDS-X1, 24 hours, 0.03 and 0.3 μM
Procedure: (§1) RNA was extracted using an RNA extraction kit (Zymo) and cDNA was made using 0.5 μg total RNA with oligo-dT primer and Verso cDNA Synthesis Kit (Thermo Scientific) following the manufacturer's instructions. qPCRs were performed by using Premix Ex Taq (Probe qPCR, Takara) or SYBR-green. Gene expression levels were normalized to that of GAPDH and analyzed with 7500 System Software using the ACT method (Applied Biosystems). RNA-seq library preparation was done with 500 ng total RNA from NCC-CDS-X1 cells treated for 4 or 24 hours with iP300w (0.3 μM) using the Swift Rapid RNA Library Kit (SwiftBioscience). 36 base paired-end sequencing was performed on an Illumina NextSeq instrument at the University of Minnesota Genomics Center.
Next, the effect of the stereoisomers on the CIC-DUX4 target genes in cells cultured with the compounds for 24 hours was analyzed.

[2] = system: CIC-DUX4 target genes like ETV4 and CCNE1 in ES cell lines (AF573, TC71, A673); assay: RT-qPCR for CIC-DUX4 target genes in Ewing sarcoma cell lines; assay type: cell-based; conditions: 0.03 μM, 18 hours
Procedure: as §1
To determine whether iP300w was particularly active against CDS cells, vis-à-vis other related cancer cell lines, viability of 3 different Ewing sarcoma (ES) cell lines and several different immortalized cell lines treated with iP300w were compared. […] Furthermore, gene expression analyses confirmed the specificity of iP300w to CDS.

[3] = system: Panc1, MiaPaca2, CFPac1 pancreatic cancer cells; assay: Cell viability (ATP) assay in pancreatic cancer cells; assay type: cell-based; conditions: serial dilutions, 48 hours
Procedure: Cell lines were plated in a 96 well dish (1×10^5 cells/well), and the following day were treated with iP300w or its stereoisomers. ATP assays were performed using CellTiter-Glo® Luminescent Cell Viability Assay (Promega) according to the manufacturer's instructions. Luminescence was analyzed on POLARstar Optima Microplate Reader (BMG Labtech, Offenburg, Germany).
Pancreatic and colorectal cancer cell lines were treated with iP300w to further distinguish its specificity to CDS from general cytotoxicity. p300/CBP have been correlated with the invasive and migratory properties of pancreatic and colorectal cancers (Iyer, N. G. et al., Proceedings of the National Academy of Sciences of the United States of America 101, 7386-7391 (2004); and Paladino, D. et al, Oncotarget 7, 7253-7267 (2016)). […] This further supports the specific efficacy of iP300w against cancers bearing p300-dependent oncogenic fusion transcription factors (such as CIC-DUX4), vis-à-vis cancers that may show some degree of growth inhibition by iP300w due simply to p300-dependent proliferative pathways.

[4] = system: ETV1, 4, and 5 in 3T3-CIC-DUX4, C2C12-CIC-DUX4 and LHCN-CIC-DUX4 cell lines; assay: RT-qPCR for CIC-DUX4 target genes in cell lines overexpressing CIC-DUX4; assay type: cell-based, mouse and human; conditions: each CIC-DUX4 overexpressing cell line, 18 hours
Procedure: Viral supernatants were produced in 293T cells. For transducing mouse cells (3T3 and C2C12), the CIC-DUX4 expression vector was packed with pCL-Eco, and for infecting human cells (293T, LHCN-M2) with psPAX2 and pMD2.G using FUGENE 6 (Roche). Viral supernatant was collected at 48 hours and 72 hours post-transfection and applied to the cells. Two days post-infection GFP positive cells were sorted using a BD FACSAria II. Established cell lines were tested for CIC-DUX4 expression by immunofluorescence and RT-qPCR.
as §1, with “Center. […]” for “Center.”

[5] = system: global H3K18 and H3K27 acetylation; assay: Western blot for H3 acetylation markers in NCC-CDS-X1 cells; assay type: cell-based, human; conditions: NCC-CDS-X1, 18 hours
Procedure: For western blot analyses, cells were lysed with RIPA buffer supplemented with protease inhibitor cocktail (Complete, Roche), and proteins were separated on 10% SDS-PAGE gels, then transferred to PVDF membranes. Antibodies were diluted in 5% skim milk in TBST and incubated overnight at 4° C. or 1 hour at RT. An appropriate secondary HRP conjugated antibody was incubated for 1 hour at RT. Membranes were then washed with TBST, and signal was visualized using Pierce ECL western blotting substrate (Thermo Scientific). For immunofluorescence, cells cultured in 96 well plates were fixed in 4% PFA for 10 min., washed twice with PBS, permeabilized with 0.3% Triton X for 30 min, and blocked with 3% BSA for 1 hour at R/T. Primary antibodies were diluted in 3% BSA and incubated o/n at 4° C. An appropriate conjugated secondary antibody was applied for 60 min at RT. Nuclei were visualized using DAPI (1:5000, Sigma). […]

## CNC(=O)Cn1cc(-c2ccc3c(c2)[C@H](F)C[C@]32NC(=O)N(CC(=O)N(Cc3ccc(F)cc3)[C@@H](C)C(F)(F)F)C2=O)cn1 (single isomer, unassigned) [iP300w]
[1]
  down-regulation of direct CIC-DUX4 targets ETV1, 4, and 5: Significant down-regulation
[2]
  effect on basal expression of CIC-DUX4 target genes and cell cycle-related genes: did not affect the basal expression
[3]
  effect on cell viability: no significant effect on cell viability
[4]
  effect on CIC-DUX4-induced ETV1, 4, and 5: reversible
[5]
  effect on global H3K18 and H3K27 acetylation: reduces global H3K18 and H3K27 acetylation
